The record followed here is publication PMC9211397, “High-Throughput Screening Platform To Identify Inhibitors of Protein Synthesis with Potential for the Treatment of Malaria” (Antimicrobial Agents and Chemotherapy, 2022).

Experiment [1] has as its target P. falciparum translation (P. falciparum lysate). The experiment is described as follows: P. falciparum in vitro translation (PfIVT) assay, lysate-based, luciferase reporter. Format: biochemical, Plasmodium falciparum. The settings on record: for IC50: established inhibitors of protein translation, read-out: IC50 values, µM PfIVT (Table S1). The source says:
(§1) Our P. falciparum in vitro translation (PfIVT) assay is built upon previously established assays ([14], [17]) and is summarized in Fig. 1A. In this assay, successful reconstitution of Plasmodium protein translation is reported via synthesis of a luciferase reporter. For PfIVT, two independent untranslated regions (UTRs), previously shown to promote strong levels of translation ([17]), were introduced upstream and downstream of the luciferase. The 5′ UTR from P. falciparum histidine-rich protein 3 (PfHrp3) ([18]) was introduced upstream of the reporter gene, and the 3′ UTR from P. falciparum histidine-rich protein 2 (PfHrp2) gene ([19]) was introduced downstream. For the reporter construct to support our complementary human IVT assay (HsIVT), the 5′ UTR was replaced with an internal ribosome entry site (IRES) from encephalomyocarditis virus (EMCV) ([20]) and the 3′ UTR was replaced with a poly(A) tail ([21]). […] Finally, a 30-bp poly(A) tail, present within the vector and downstream of the luciferase gene, was inserted to enhance mRNA stability ([21]).
(§2) Translationally active P. falciparum or human embryonic kidney (HEK) 293F lysates were supplemented with accessory, helper, amino acid, and energy regeneration solutions (see Materials and Methods for details). In vitro translation reactions were initiated by the addition of purified mRNA to each reaction well. Using this basic assay format, a number of parameters were assessed and optimized, namely, assay temperature, time, mRNA concentration, and reaction volume (summarized in Fig. S2 in the supplemental material). In addition, we compared the luminescence signal of the CBG firefly luciferase with CBG99, derived from the click beetle […] ([18]).
3D7 parasites were synchronized following two rounds of treatment with D-sorbitol (5%), as previously described ([40]). The hematocrit was reduced from 5% (for standard culture) to 1.5 to 2% and cultures were transferred into HYPERflasks (Corning). Fresh medium was added once or twice daily. […] Harvested red blood cells (infected) were lysed by incubation in 0.1% (wt/vol) saponin on ice for 10 min with gentle agitation. Free parasites were harvested by centrifugation (2,800 × g, 10 min, 4°C) and washed 3 times in wash buffer (WB; 100 mM potassium acetate, 2.5 mM magnesium acetate, 45 mM HEPES [pH 7.4], 250 mM sucrose, 2 mM dithiothreitol, and 15 μM leupeptin) to remove lysed red blood cell debris. The resulting pellet was resuspended in 1 volume of WB supplemented with cOmplete EDTA-free protease inhibitor cocktail (Roche; 1 tablet/20 mL) and human RNase A inhibitor (Sigma; 5 U/mL). Parasite lysis was achieved by nitrogen cavitation using a prechilled 45-mL Parr cell disruption vessel (1,500 lb/in^2, 60 min, 4°C). To clarify the lysate, it was centrifuged (10,000 × g, 15 min, 4°C), and the supernatant was collected, transferred into fresh tubes, and centrifuged (30,000 × g, 15 min, 4°C). As a quality assurance step for each lysate, the RNA content of the resulting supernatant was determined using a NanoDrop spectrophotometer (Shimadzu). Supernatants with RNA levels of >250 ng/μL were aliquoted (100 μL), flash frozen in liquid nitrogen, and stored at −80°C.
(In general: Reporter assays use an easily measured gene product as a stand-in for the process of interest.)

Experiment [2] deals with asexual-blood-stage (ABS) P. falciparum. The experiment is described as follows: SYBR green-based P. falciparum asexual growth inhibition assay. Type of experiment: cell-based. The settings on record: Plasmodium falciparum. As for the experimental part:
The Plasmodium falciparum reference strain 3D7 used throughout this study was cultured as previously described ([39]). Briefly, cultures incubated at 37°C in a humidified atmosphere of 1% O2 and 3% CO2 in balance with N2 were maintained in RPMI 1640 media supplemented with 5% A^+ human red blood cells (provided by the Scottish National Blood Transfusion Service), 25 mM HEPES, 2 mM L-glutamine, 0.5% AlbuMAX II (Gibco), 12 mM sodium bicarbonate, 0.2 mM hypoxanthine, and 20 mg/L gentamicin (pH 7.3).
Our SYBR green asexual-growth assay was based on a previous report ([45]). In brief, 96-well black clear-bottom plates (Corning) were preprinted with a compound and normalized with DMSO to 0.5% of a total assay volume of 100 μL. Highly synchronized ring-stage parasites and blood were added to a 2% final parasitemia and 1% hematocrit. The compounds were incubated with parasites for 72 h prior to freezing at −20°C (to aid cell lysis). The plate was thawed on ice and lysis buffer (20 mM Tris pH 7.5, 5 mM EDTA, 0.008% [w/v] saponin, […]) containing SYBR green I (Thermo Fisher Scientific) at a final concentration of 0.02% (v/v) was added. The 96-well plate was equilibrated to room temperature for 1 h before fluorescence was determined on a TECAN Infinite Pro 200 microplate reader using green fluorescent protein (GFP) filters (excitation, 485 nm; emission, 535 nm). Data were fitted to a two-parameter equation using GraFit version 7.0 (Erithacus Software), and EC50 values were calculated. An excess of the standard inhibitor mefloquine (10 μM) was used to define 0% parasite growth.

For experiment [3], the system named is human translation (HEK 293F lysate). Briefly: Human in vitro translation (HsIVT) assay, HEK 293F lysate, luciferase reporter. The settings on record: for effect on translation in the HsIVT assay (Fig. S3A): 10 µM, three technical replicates; for IC50: weighted mean ± SD from at least two biological replicates, read-out: IC50 in the HsIVT assay (Fig. S3B). Format: biochemical.
Excerpt: as §1, §2
FreeStyle human embryonic kidney (HEK) 293F cells (Thermo Fisher Scientific) were grown in 500-mL polycarbonate Erlenmeyer vented flasks (Corning) containing FreeStyle 293 expression medium (Life Technologies) upon reaching a density of approximately 2 × 10^6. Cells were then centrifuged at 1,000 × g for 10 min at 4°C, the medium was discarded, and the resulting pellet was washed once in buffer II containing 20 U of human placental RNase inhibitor (Sigma-Aldrich) and cOmplete EDTA-free inhibitor cocktail (Roche) before being centrifuged at 2,800 × g for 10 min. Clarified HEK cell lysate was obtained in the same way as described for P. falciparum lysate.
PfIVT and HsIVT reactions (5 μL final volume) were performed in 384-well plates (Corning) containing 50% lysate from cells (either P. falciparum or HEK 293F), 10% amino acid solution (final concentration of 400 μM for each amino acid in 60 mM KOH; biotechrabbit), 10% energy recovery solution (final assay concentrations of 40 mM HEPES [pH 7.4], 1.5 mM ATP, 0.15 mM GTP, […] creatine phosphate, and 40 U/mL creatine phosphokinase), 10% helper solution (final assay concentrations of 200 μM cystine, 2% polyethylene glycol 3000 [PEG 3000], 1 mM spermidine, 0.5 mM folinic acid, and 15 μM leupeptin), 10% supplemental salt solution (22.5 mM HEPES [pH 7.4], 50 mM potassium acetate, 1 mM magnesium acetate, 1 mM DTT, 1 U/mL human placental RNase inhibitor, 0.1 mM leupeptin), and 10% cbg99 luciferase mRNA (3,000 ng/mL). A master mix solution containing all components was prepared on ice prior to assays, and 5 μL was dispensed into wells using an automated Integra VIAFLO 16-channel 12.5-μL pipette.

[4] abbreviates: established inhibitors of protein translation, read-out: EC50 values, µM PfABS (Table S1).

Where two headings read alike, the source gives them in different places.

In the case of `O=C(NCCN1CCCC1)c1cc(-c2ccc(CN3CCOCC3)cc2)nc2ccc(F)cc12` [DDD107498/M5717, reference compound], the IC50 (commonly the point on the concentration scale where inhibition reaches its midpoint) in experiment [1] amounted to 0.1 µM. In experiment [2] (setting [4]), the concentration for a half-maximal effect (EC50) (in general, the concentration that produces a half-maximal response) came out at 0.0008 µM. The “effect on translation in the HsIVT assay (Fig. S3A)” value (shortened to “effect on translation”) in experiment [3] is “little or no effect”.
Turning to `O=C(CC1NCCCC1O)Cn1cnc2cc(Br)c(Cl)cc2c1=O` (stereo not drawn) [Halofuginone, halofuginone, reference compound], the IC50 in experiment [1] came to 0.3 µM. In addition, the EC50 in experiment [2] (setting [4]) was 0.0004 µM. In addition, in experiment [3], the “inhibition of translation in HsIVT assay (validation)” value (“inhibition … (validation)” for short) is given as “successfully inhibit translation”, the “effect on translation” value is “ablated activity” and the IC50 came to 1700 ± 40 nM.
With `NCCCC[C@H](N)C(=O)NS(=O)(=O)OC[C@H]1O[C@@H](n2cnc3c(N)ncnc32)[C@H](O)[C@@H]1O` [DDD01712277, reference compound], the half-maximal inhibitory concentration (IC50) in experiment [1] is 0.2 µM. In experiment [2] (setting [4]), the concentration for a half-maximal effect (EC50) amounted to 0.1 µM.
`O=C(Nc1ccc(F)c(-c2nc3cc(-c4ccccc4)cnc3[nH]2)c1)N1CCCC1` [MMV688372]: the “PfIVT inhibition at 30 μM (%)” value in experiment [1] (single-point screen, 30 μM, Pathogen Box) is on record as 62.9%. The half-maximal effective concentration (EC50) was 13.6 µM in experiment [2] (3D7, 72 h, read-out: P. falciparum asexual-blood-stage EC50) and 14 µM in experiment [2] (read-out: EC50 against P. falciparum (text)).
As to `C[C@@H]1C[C@@H]([C@H](O)CC2CC(=O)NC(=O)C2)C(=O)[C@@H](C)C1` [Cycloheximide, cycloheximide, reference compound], the concentration for half-maximal inhibition (IC50) in experiment [1] stood at 0.5 µM. Also, the EC50 in experiment [2] (read-out: EC50 values, µM PfABS (Table S1)) was 0.1 µM. In experiment [3], the “inhibition … (validation)” value is on record as “successfully inhibit translation”, the “effect on translation” value is listed as “ablated activity” and the concentration for half-maximal inhibition (IC50) was 1200 ± 40 nM.
Consider `C[C@H]1CCC[C@H](C[C@H]2Cc3cc(O)cc(O)c3C(=O)O2)O1` [Cladosporin, cladosporin, reference compound], for which the IC50 in experiment [1] worked out at 13 µM. The EC50 in experiment [2] (setting [4]) came to 0.07 µM. The “effect on translation” value in experiment [3] is “little or no effect”. In addition, the “activity in HsIVT assay at 100 μM” value in experiment [3] (100 μM) was “inactive”.
With `CC[C@H]1CN2CCc3cc(OC)c(OC)cc3[C@@H]2C[C@@H]1C[C@H]1NCCc2cc(OC)c(OC)cc21` [Emetine, emetine, reference compound], in experiment [1], the IC50 turned out to be 1.8 µM. In addition, in experiment [2] (setting [4]), the EC50 turned out to be 0.03 µM. In addition, in experiment [3], the “inhibition … (validation)” value is “successfully inhibit translation”, the “effect on translation” value was “ablated activity” and the half-inhibitory concentration (IC50) was found to be 800 ± 100 nM.
As for `O=C(NCCN1CCCC1)c1cc(-c2ccc(CN3CCOCC3)cc2Cl)nc2ccc(F)cc12` [DDD00197451, reference compound], in experiment [1], the IC50 came to 0.5 µM. The “inhibition of translation (PfIVT), internal control” value in experiment [1] (internal control in all plates of the single-point screens) was > 97%. In addition, the half-maximal effective concentration (EC50) in experiment [2] (setting [4]) turned out to be 0.003 µM.
